Data from paper PMC7023064, “Design, Synthesis, and Evaluation of Novel 2-Methoxyestradiol Derivatives as Apoptotic Inducers through an Intrinsic Apoptosis Pathway” (Biomolecules, 2020).

Assays:
[1] = system: human breast cancer MDA-MB-231 cell lines; assay: MTT cytotoxicity assay, MDA-MB-231; format: cell-based; settings: mean ± SD of three experiments
Description: Human breast adenocarcinoma MCF-7 cell lines, human breast cancer MDA-MB-231 cell lines, and the normal human liver L-O2 cell lines were provided by Nanjing KeyGen Biotech Co. Ltd. (Nanjing, China). MCF-7 cells were cultured in a base medium (90% RPMI-1640 and 10% FBS) at 37 °C, 5% CO2 and a saturated humidity atmosphere. MDA-MB-231 cells were cultured in a base medium (90% […] and 10% FBS) at 37 °C, 5% CO2 and a saturated humidity atmosphere. L-O2 cells were cultured in a base medium (90% DMEM and 10% FBS) at 37 °C, 5% CO2 and a saturated humidity atmosphere.
The cytotoxicity of the tested compounds was determined using the 3-(4,5-dimethyl-2-thiazolyl)-2,5-diphenyl-2-H-tetrazolium bromide (MTT) assay. Cells were seeded in 96-well plates and incubated in a 5% CO2 incubator at 37 °C. When the cells adhered, compounds at different concentrations were added to every well. After incubation for another 72 h, MTT solution (5 mg/mL) was added into each well and cells were incubated for an additional 4 h. The viable cells were stained with MTT and scanned with an electrophotometer at 570 nm. Each concentration treatment was done in triplicate wells. The half maximal inhibitory concentration (IC50) values were estimated by fitting the inhibition data to a dose-dependent curve using a logistic derivative equation.

MCF-7 cells [2] = assay: Mitochondrial membrane potential analysis (JC-1, flow cytometry); format: cell-based, human; settings: 72 h, JC-1 (lower right quadrant)
Description: MCF-7 cells were incubated in triplicate and treated with compound 11/12a for 72 h. The cells were washed with PBS and stained with JC-1 dye (Keygen, KGA601) under dark conditions according to the manufacturer’s instructions. After incubation, the cells were washed twice with PBS, and the percentage of cells with collapsed or healthy mitochondrial membrane potentials (MMP) was monitored by flow cytometry analysis (FACS Calibur Becton-Dickinson, San Jose, California, USA).

MCF-7 cells [3] = assay: Cell cycle assay (PI staining, flow cytometry); format: cell-based, human; settings: 72 h
Description: MCF-7 cells at a density of 5 × 10^5 cells/well were seeded in 6-well plates and incubated at 37 °C in a humidified 5% CO2 incubator for 24 h. Exponentially growing cells were treated with compound 11/12a (0, 5, 10, and 20 μM) for 72 h. Then, the cells were harvested and fixed with 70% precooled ethanol at 4 °C for 12 h. Later, the cells were centrifuged and washed with cold PBS. 100 μL of RNase A was added, and then bathed in water for 30 min at 37 °C. Subsequently, cells were stained by 400 μL of propidium iodide (PI) for 30 min at 4 °C in the dark. Finally, cellular DNA was measured using a flow cytometry (FACS Calibur Becton-Dickinson, San Jose, California, USA).

[4] = system: MCF-7 breast cancer cells; assay: Real-time polymerase chain reaction of apoptosis genes; format: cell-based, human; settings: 5, 10, and 20 μM, GAPDH as control
Description: RNA was isolated using Trizol Reagent (Invitrogen, Carlsbad, California, USA). cDNA was made via the manufacturer’s instructions with the first chain of a cDNA synthesizing kit (Fermentas, Lithuania). Real-time polymerase chain reaction (RT-PCR) was performed on a Da An Gene DA7600 Real Time machine using Da An Gene incorporation (ZhongShan, China). The 2^−ΔΔCT method was used to calculate the relative levels of gene expression using Da An Gene DA7600 QPCR software v3.00 (Da An Gene). The GAPDH (human) expression was used as the internal control. A standard melting-curve cycle was used to confirm the quality of amplification. The reactions were performed in triplicate for each sample. The gene-specific primers were designed with the Primer5 BLAST software by GenScript Co., Ltd. (Nanjing, China): • 1 GAPDH (human): primer (122 bp), • Sense primer: 5′ […] 3’ • Antisense primer: 5′ […] 3′ • 2 Apaf-1 (human): primer (134 bp), • Sense primer: 5′ […] 3′ • Antisense primer: 5′ […] 3′ • 3 Bax (human): primer (112 bp), • Sense primer: 5 ′TTGCTTCAGGGTTTCATCC 3′ • Antisense primer: 5′ […] 3′ • 4 Bcl-2 (human): primer (116 bp), • Sense primer: 5′ […] 3′ • Antisense primer: 5′ […] 3′ • 5 Bcl-xL (human): primer (124 bp), • Sense primer: 5′ […] 3′ • Antisense primer: 5′ […] 3′ • 6 Caspase-3 (human): primer (131 bp), • Sense primer: 5′ […] 3′ • Antisense primer: 5′ […] 3′ • 7 Caspase-8 (human): primer (122 bp), • Sense primer: 5′ […] 3′ • Antisense primer: 5′ […] 3′ • 8 Caspase-9 (human): primer (136 bp), • Sense primer: 5′ […] 3′ • Antisense primer: 5′ […] 3′ • 9 Cytochrome c (human): primer (127 bp), • Sense primer: 5′ […] 3′ • Antisense primer: 5′ […] 3′

MCF-7 cells [5] = assay: Western blotting of apoptosis proteins; format: cell-based, human; settings: 0, 5, 10, and 20 µM, 72 h, β-actin as control
Description: After the treatment of MCF-7 cells with compound 11/12a (0, 5, 10, and 20 μM) for 72 h, the total proteins of MCF-7 cells were extracted and their concentrations were balanced to the same level by BCA protein assay reagent (KGP902, KeyGen Biotech Co. Ltd., Nanjing, China), followed by 8 min of protein denaturation with SDS loading buffer at 100 °C. Proteins were separated by sodium dodecyl sulfate-polyacrylamide electrophoresis (SDS-PAGE) and transferred onto polyvinylidene fluoride (PVDF) membranes, which were blocked with 5 mL of 5% fat-free dry milk in 1× Tris-buffered saline (TBS) containing 0.05% Tween 20 for 2 h. Then the membranes were incubated with Apaf-1 (Abcam, no: ab234436), Bax (Abcam, no: ab32503), Bcl-2 (Abcam, no: ab692), Bcl-xL (Abcam, no: ab32370), caspase-3 (Abcam, no: ab184787), caspase-8 (Abcam, no: ab25901), caspase-9 (Abcam, no: ab219590), cytochrome c (Abcam, no: ab133504), and β-actin (Abcam, no: ab8226) antibodies at 4 °C overnight, followed by treatment with secondary horseradish-peroxidase-conjugated anti-rabbitIgG (KeyGen Biotech Co. Ltd., no: KGAA35) for 2 h. Membranes were finally scanned in a ChemiDoc MP Imaging System (Bio-Rad) after 2 min incubation in Clarity Western ECL Substrate (Bio-Rad).

Molecule	IC50 ([1]; 72 h)	MCF-7 cells with collapsed MMP (MCF-7 cells [2]; 5 μM)	MCF-7 cells with collapsed MMP (MCF-7 cells [2]; 10 μM)	MCF-7 cells with collapsed MMP (MCF-7 cells [2]; 20 μM)	cells at the G2 phase (MCF-7 cells [3]; 5 μM)	cells at the G2 phase (MCF-7 cells [3]; 10 μM)	cells at the G1 phase (MCF-7 cells [3]; 20 μM)	cells at the G2 phase (MCF-7 cells [3]; 20 μM)	mRNA expression levels of Apaf-1, Bax, caspase-3, caspase-8, caspase-9, and cytochrome c [4]	mRNA expression levels of Bcl-2 and Bcl-xL [4]	protein expressions of Apaf-1, Bax, caspase-3, caspase-8, caspase-9, and cytochrome c (MCF-7 cells [5])	protein expressions of Bcl-2 and Bcl-xL (MCF-7 cells [5])	IC50 ([1]; Homo sapiens, MDA-MB-231, 72 h)
17 β-[6-(Uracil-3-yl)-Hexyloxy]-2-Methoxy-Estra-1,3,5(10)-Triene-3-ol [Compound 12a]	13 ± 0.38 µM	8.78%	14.56%	39.75%	7.97%	13.93%	54.41%	22.46%	upregulated	downregulated	increased in a dose-dependent manner	obviously decreased	
COc1cc2c(cc1O)CC[C@@H]1[C@@H]2CC[C@]2(C)[C@@H](OCCCCCCCCn3c(=O)ccn([C@@H]4O[C@H](CO)[C@@H](O)[C@H]4O)c3=O)CC[C@@H]12 [Compound 11, 17 β-[8-(1-β-D-Ribofuranosyluracil-3-yl)-Octyloxy]-2-Methoxy-Estra-1,3,5(10)-Triene-3-ol]		7.95%	14.13%	38.88%	8.32%	15.48%	42.84%	24.11%	upregulated	downregulated	increased in a dose-dependent manner	obviously decreased	14 ± 1.08 µM
